Laboratory results: patent US9150530B2, “Esters of 4, 9-dihydroxy-naphtho [2, 3-b] furans for disease therapies” (Zhoushan Haizhongzhou Xinsheng Pharmaceuticals Co., Ltd., priority 2011, dated 2015)

How the values were obtained:
A549 = assay: Effect of drug incubation time on biological activity, MTT, A549; type: cell-based; conditions: A549 (significant NQ01 activity)
Method: (§1) Cell Viability Determination: Popular MTT method (Archives of Biochemistry and Biophysics, 1993, 303: 474-482) was used to screen the in vitro effects of the invented drugs. Briefly, 5000 to 10000 cells were inoculated per well in a 96-well plate. After overnight incubation, drug was added to the wells at final concentration of 10 μM, […], 2.5 μM, 1.25 μM, or 1 μM, 0.75 μM, 0.5 μM and 0.25 μM in complete culture medium. Each dose level covered 4 equivalent wells. After 48 hour incubation, one tenth volume of 5 mg/mL MTT (thiazolyl blue tetrazolium bromide, Sigma-Aldrich) stock solution was added, and incubation was continued for 2 hours. Then medium was removed and 100 μL of isopropanol solution comprising 86% isopropanol, 4% aqueous 1 N HCl and 10% aqueous SDS solution (10% in concentration) was added. The absorbance of each well at 570 nm wavelength was measured by a micro-plate reader after gentle shaking for 20 minutes. Drug concentrations of 50% cell viability (IC50) were calculated by LOGIT method.
(§2) Effect of Drug Incubation Time on the Biological Activities of Compound XIII (FIG. 7): MTT assay was used for this experiment. Same procedure as described in “Cell Viability Determination” section. Briefly, cancer cells were inoculated on 96 well culture plates. […] The viability of cells at each well was read out using MTT method.

DLD1 [1] = assay: Effect of drug incubation time on biological activity, MTT, DLD1; type: cell-based; conditions: DLD1 (significant NQ01 activity)
Method: as §1, §2

[2] = Metabolism in biological fluid (human whole blood, cancer cell lysate, liver microsomes, mouse oral uptake), HPLC; type: in vitro ADME; conditions: liver microsomes or mouse oral uptake system, 20 μM, 37° C.
Method: Second, a major metabolite found after incubation of compound I, III, IV, VI or XIII in biological fluid, such as human whole blood, or cancer cell lysate, or liver microsomes, or mouse oral uptake system, is compound XII (FIG. 3). Similarly, a major metabolite found after incubation of compound V, VII or XIV in biological fluid is 2-(1-hydroxy-n-propyl)-naphtho[2,3-b]furan-4,9-dione (data not shown). Reduction of the position 2 substituent carbonyl group is part of quinone redox reaction as evidenced by the β-lapachone effect on the formation of compound XII in the compound XIII incubation mixture of human whole blood (part D of FIG. 3). The possible reaction mechanism is proposed as shown in scheme 7, in which the two electron reduction could be NQ01 catalyzed reduction or two successive cytochrome b5 reductase or p450 reductase catalyzed reaction. As substrate of these enzymes, β-lapachone could compete for the two electron or single electron reaction and thus reduced formation of the metabolism product.
Crystalline or amorphous solid of compound was mixed with excipient and suspended in 0.5% carboxymethylcellulose (CMC) solution in a mortar. Then the mixture was orally administered into ICR mouse at the predetermined dosage. At the predetermined time point, blood was drawn from the mouse and stored in the vial containing heparin. The blood samples were centrifuged at 6,000 rpm for 10 min, and plasmas were separated. To each plasma sample, 9 times volume of acetonitrile/methyl trifluoromethanesulfonate (1000:1) or acetonitrile/concentrated HCl (1000:1) was added. The resulting mixtures were vortexed and incubated in dry ice for 30 minutes or in −20° C. freezer for 3 hours, then centrifuged, and supernatants were separated for HPLC analysis using gradient B.
The biological systems for in vitro metabolism study include: human whole blood stabilized with sodium citrate; cancer cell lysate (obtained using freeze-thaw method, 10 mg/ml in protein concentration for use); liver microsomes with NADPH generation system (prepared according to the protocol provided by iPhase Pharma, Beijing, China);
10 mM of a compound of formula I or its analog or compound XIII in DMSO (however, compound VI was in DMF) was added into the biological system to a final concentration of 20 μM. The mixtures were incubated at 37° C. for predetermined time. To each sample, then 9 times volume of acetonitrile was added. The resulting mixtures were vortexed and incubated in dry ice for 30 minutes or in −20° C. freezer for 3 hours, then centrifuged, and supernatants were separated for HPLC analysis using gradient B.

H1299 = assay: Effect of drug incubation time on biological activity, MTT, H1299; type: cell-based; conditions: H1299 (no NQ01 activity)
Method: as §1, §2

Panc-1 = assay: Effect of NQ01 inhibitor (dicumarol) on biological activity, MTT, Panc-1; type: cell-based; conditions: Panc-1 (no significant NQ01 enzymatic activity); dicumarol 40 μM; 48 hr
Method: as §1
(§3) Effect of NQ01 Inhibitor (Dicumarol) on the Biological Activities of 2-acetyl-4,9-diacetoxy-naphtho[2,3-b]furan and Compound XIII (Part B and C of FIG. 4):MTT assay was used for this experiment. Same procedure as described in “Cell Viability Determination” section. […] The viability of cells at each well was read out after 48 hr incubation in cell culture incubator.

DLD1 [3] = assay: Effect of NQ01 inhibitor (dicumarol) on biological activity, MTT, DLD1; type: cell-based; conditions: DLD1 (significant NQ01 enzymatic activity); dicumarol 40 μM; 48 hr
Method: as §1, §3

Panc 1 = assay: Effect of drug incubation time on biological activity, MTT, Panc 1; type: cell-based; conditions: Panc 1 (no NQ01 activity)
Method: as §1, §2

**Q.** For CC(=O)c1cc2c(o1)C(=O)c1ccccc1C2=O [compound XIII, 2-acetyl-naphtho[2,3-b]furan-4,9-dione], which “Cell growth inhibition, full time treatment versus 4 hour treatment” value (A549) is on record?
**A.** made no significant difference in cell growth inhibition

**Q.** What about the “Cell growth inhibition, full time treatment versus 4 hour treatment” value (DLD1 [1]) of the same molecule?
**A.** made no significant difference in cell growth inhibition

**Q.** And the “Major metabolite found after incubation in biological fluid” value [2]?
**A.** compound XII

**Q.** What about the “Cell growth inhibition, full time treatment versus 4 hour treatment” value (H1299) of the same molecule?
**A.** full time treatment with compound XIII caused much higher cell growth inhibition than 4 hour treatment

**Q.** What about the “Dicumarol effect on anticancer activity” value (Panc-1) of the same molecule?
**A.** dicumarol showed little effect

**Q.** What about the “Dicumarol effect on anticancer activity” value (DLD1 [3]) of the same molecule?
**A.** dicumarol attenuates anticancer activities

**Q.** What about the “Cell growth inhibition, full time treatment versus 4 hour treatment” value (Panc 1) of the same molecule?
**A.** full time treatment with compound XIII caused much higher cell growth inhibition than 4 hour treatment
